Measured values published in publication PMC4505066, “Insights into the Recruitment of Class IIa Histone Deacetylases (HDACs) to the SMRT/NCoR Transcriptional Repression Complex” (The Journal of Biological Chemistry, 2015).
Like-named read-outs stand apart in the source and are kept apart here. No end group written: not given here.

Tests used:
[1] = target: T1, HDAC4 catalytic domain (wild type) (Homo sapiens, UniProt P56524); experiment: Fluorescence anisotropy binding of BODIPY-TMR labeled GSI motif peptides to HDAC4
T1 construct: we purified the recombinant catalytic domains of HDACs 4, 5, 7, and 9; hexa-histidine tag (N, cleaved yes); S-tag (N, cleaved yes); made in house; host or cells: Escherichia coli Rosetta (pET30)
Experimental: Immediately prior to the fluorescence anisotropy assays the HDACs were concentrated and buffer exchanged into 1× PBS, 0.5 mM Tris(2-carboxyethyl)-phosphine and the protein concentration was determined by A280 in 6 M guanidine HCl. Protein was dispensed into 96-well black plates prior to a 2-fold serial dilution in reaction buffer (1× PBS, 0.01% Triton X-100, 0.1 mg/ml of BSA). Inhibitors were preincubated with HDACs for 30 min at a 2:1 ratio before serial dilution. Labeled peptide was added to a final concentration of 1 μM in a 50-μl reaction volume. […] Data were analyzed using GraphPad Prism, assuming non-linear fit with one-site binding to fulfill the equation y = Bmax × x/(Kd + x).

[2] = target: T2, H976Y gain-of-function (GOF) HDAC4 catalytic domain (Homo sapiens, UniProt P56524, H976Y); experiment: Fluorescence anisotropy binding of GSI peptide to H976Y gain-of-function HDAC4
T2 construct: the H976Y gain-of-function (GOF) HDAC4 catalytic domain; hexa-histidine tag (N, cleaved yes); S-tag (N, cleaved yes); made in house; host or cells: Escherichia coli Rosetta (pET30)
T2 sequence (P56524 655-1084 H976Y limits assumed): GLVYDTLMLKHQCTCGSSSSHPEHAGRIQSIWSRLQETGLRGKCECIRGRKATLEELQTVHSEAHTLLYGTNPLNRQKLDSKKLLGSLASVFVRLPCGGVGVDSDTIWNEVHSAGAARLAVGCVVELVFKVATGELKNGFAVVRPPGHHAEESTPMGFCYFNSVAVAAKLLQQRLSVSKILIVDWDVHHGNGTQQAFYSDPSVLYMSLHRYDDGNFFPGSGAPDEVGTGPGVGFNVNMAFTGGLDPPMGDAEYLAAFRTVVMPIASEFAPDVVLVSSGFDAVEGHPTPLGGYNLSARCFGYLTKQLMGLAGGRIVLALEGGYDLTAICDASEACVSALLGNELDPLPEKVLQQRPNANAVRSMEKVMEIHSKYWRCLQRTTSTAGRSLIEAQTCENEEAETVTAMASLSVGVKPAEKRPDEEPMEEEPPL
Experimental: Peptides were coupled to BODIPY-TMR by incubation in 18 MΩ water at a 5:1 molar ratio for 2 h at room temperature with continual stirring. Following incubation, buffer was exchanged into 1× PBS, 0.5 mM Tris(2-carboxyethyl)phosphine using a PD-10 column (GE Healthcare). Labeled peptides were concentrated using an Amicon centrifugal concentrator. Immediately prior to the fluorescence anisotropy assays the HDACs were concentrated and buffer exchanged into 1× PBS, 0.5 mM Tris(2-carboxyethyl)-phosphine and the protein concentration was determined by A280 in 6 M guanidine HCl. Protein was dispensed into 96-well black plates prior to a 2-fold serial dilution in reaction buffer (1× PBS, 0.01% Triton X-100, 0.1 mg/ml of BSA). Inhibitors were preincubated with HDACs for 30 min at a 2:1 ratio before serial dilution. Labeled peptide was added to a final concentration of 1 μM in a 50-μl reaction volume. […] Data were analyzed using GraphPad Prism, assuming non-linear fit with one-site binding to fulfill the equation y = Bmax × x/(Kd + x).

HDAC5 catalytic domain = target: T3, HDAC5 catalytic domain (Homo sapiens, UniProt Q9UQL6); experiment: Fluorescence anisotropy binding of labeled GSI peptide to HDAC5; conditions: Fig. 2B, labeled wild type peptide 1 μM
T3 construct: we purified the recombinant catalytic domains of HDACs 4, 5, 7, and 9; hexa-histidine tag (N, cleaved yes); S-tag (N, cleaved yes); made in house; host or cells: Escherichia coli Rosetta (as for HDAC4)
Experimental: (§1) Wild type peptide was obtained from Biomatik. Mutant peptides were synthesized in house using a CEM microwave peptide synthesizer. Peptides for use in fluorescence anisotropy assays were synthesized with an extra N-terminal cysteine.
(§2) Peptides were coupled to BODIPY-TMR by incubation in 18 MΩ water at a 5:1 molar ratio for 2 h at room temperature with continual stirring. Following incubation, buffer was exchanged into 1× PBS, 0.5 mM Tris(2-carboxyethyl)phosphine using a PD-10 column (GE Healthcare). Labeled peptides were concentrated using an Amicon centrifugal concentrator. Immediately prior to the fluorescence anisotropy assays the HDACs were concentrated and buffer exchanged into 1× PBS, 0.5 mM Tris(2-carboxyethyl)-phosphine and the protein concentration was determined by A280 in 6 M guanidine HCl. Protein was dispensed into 96-well black plates prior to a 2-fold serial dilution in reaction buffer (1× PBS, 0.01% Triton X-100, 0.1 mg/ml of BSA). Inhibitors were preincubated with HDACs for 30 min at a 2:1 ratio before serial dilution. Labeled peptide was added to a final concentration of 1 μM in a 50-μl reaction volume. Measurements were recorded using an excitation wavelength of 531 nm and emission wavelength of 595 nm. Data were analyzed using GraphPad Prism, assuming non-linear fit with one-site binding to fulfill the equation y = Bmax × x/(Kd + x).

HDAC7 catalytic domain = target: T4, HDAC7 catalytic domain (Homo sapiens, UniProt Q8WUI4); experiment: Fluorescence anisotropy binding of labeled GSI peptide to HDAC7; conditions: Fig. 2B, labeled wild type peptide 1 μM
T4 construct: we purified the recombinant catalytic domains of HDACs 4, 5, 7, and 9; hexa-histidine tag (N, cleaved yes); S-tag (N, cleaved yes); made in house; host or cells: Escherichia coli Rosetta (as for HDAC4)
T4 sequence (Q8WUI4 512-865 limits assumed): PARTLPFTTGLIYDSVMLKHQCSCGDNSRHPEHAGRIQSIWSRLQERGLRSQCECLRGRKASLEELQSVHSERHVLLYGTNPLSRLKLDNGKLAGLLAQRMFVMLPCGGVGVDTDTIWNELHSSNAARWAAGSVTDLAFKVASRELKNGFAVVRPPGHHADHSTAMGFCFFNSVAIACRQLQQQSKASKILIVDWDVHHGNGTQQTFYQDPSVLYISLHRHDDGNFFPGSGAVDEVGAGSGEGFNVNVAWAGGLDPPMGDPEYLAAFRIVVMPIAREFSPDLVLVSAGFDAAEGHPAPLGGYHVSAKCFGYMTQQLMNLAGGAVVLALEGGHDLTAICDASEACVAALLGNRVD
Experimental: as §1, §2

HDAC9 catalytic domain = target: T5, HDAC9 catalytic domain (Homo sapiens, UniProt Q9UKV0); experiment: Fluorescence anisotropy binding of labeled GSI peptide to HDAC9; conditions: Fig. 2B, labeled wild type peptide 1 μM
T5 construct: we purified the recombinant catalytic domains of HDACs 4, 5, 7, and 9; hexa-histidine tag (N, cleaved yes); S-tag (N, cleaved yes); made in house; host or cells: Escherichia coli Rosetta (as for HDAC4)
Experimental: as §1, §2

full-length HDAC8 = target: T6, full-length HDAC8 (Homo sapiens, UniProt Q9BY41); experiment: Fluorescence anisotropy binding of labeled GSI peptide to HDAC8; conditions: Fig. 2B, class I HDAC8 control, labeled wild type peptide 1 μM
T6 construct: along with full-length HDAC8 as an intrinsically active class I HDAC control; made in house
T6 sequence (Q9BY41 1-377): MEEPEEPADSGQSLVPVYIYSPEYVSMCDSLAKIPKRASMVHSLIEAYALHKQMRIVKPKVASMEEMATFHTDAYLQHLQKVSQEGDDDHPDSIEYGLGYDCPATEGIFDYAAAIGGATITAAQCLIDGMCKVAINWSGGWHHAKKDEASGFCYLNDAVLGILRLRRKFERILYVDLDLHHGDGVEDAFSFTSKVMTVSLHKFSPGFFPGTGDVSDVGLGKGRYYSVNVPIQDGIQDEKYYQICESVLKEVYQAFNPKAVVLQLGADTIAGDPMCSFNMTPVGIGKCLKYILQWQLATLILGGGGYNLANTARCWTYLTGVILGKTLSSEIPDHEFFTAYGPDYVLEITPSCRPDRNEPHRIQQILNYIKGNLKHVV
Experimental: as §1, §2

HDAC4cd C667A = target: T7, HDAC4cd C667A (Homo sapiens, UniProt P56524, C667A); experiment: Fluorescence anisotropy binding of GSI peptide to HDAC4 C667A mutant; conditions: Fig. 3C, zinc chelating residue mutant
T7 construct: we purified the recombinant catalytic domains of HDACs 4, 5, 7, and 9; hexa-histidine tag (N, cleaved yes); S-tag (N, cleaved yes); made in house; host or cells: Escherichia coli Rosetta (pET30)
Experimental: as §2

HDAC4cd H675A = target: T8, HDAC4cd H675A (Homo sapiens, UniProt P56524, H675A); experiment: Fluorescence anisotropy binding of GSI peptide to HDAC4 H675A mutant; conditions: Fig. 3C, zinc chelating residue mutant
T8 construct: we purified the recombinant catalytic domains of HDACs 4, 5, 7, and 9; hexa-histidine tag (N, cleaved yes); S-tag (N, cleaved yes); made in house; host or cells: Escherichia coli Rosetta (pET30)
Experimental: as §2

HDAC4cd C751A = target: T9, HDAC4cd C751A (Homo sapiens, UniProt P56524, C751A); experiment: Fluorescence anisotropy binding of GSI peptide to HDAC4 C751A mutant; conditions: Fig. 3C, zinc chelating residue mutant
T9 construct: we purified the recombinant catalytic domains of HDACs 4, 5, 7, and 9; hexa-histidine tag (N, cleaved yes); S-tag (N, cleaved yes); made in house; host or cells: Escherichia coli Rosetta (pET30)
Experimental: as §2

[3] = Fig. 2A, fluorescence anisotropy, BODIPY-TMR labeled peptide 1 μM, HDAC4 2-fold serial dilution, one-site binding fit, read-out: Kd

T1 sequence (P56524 655-1084 limits assumed): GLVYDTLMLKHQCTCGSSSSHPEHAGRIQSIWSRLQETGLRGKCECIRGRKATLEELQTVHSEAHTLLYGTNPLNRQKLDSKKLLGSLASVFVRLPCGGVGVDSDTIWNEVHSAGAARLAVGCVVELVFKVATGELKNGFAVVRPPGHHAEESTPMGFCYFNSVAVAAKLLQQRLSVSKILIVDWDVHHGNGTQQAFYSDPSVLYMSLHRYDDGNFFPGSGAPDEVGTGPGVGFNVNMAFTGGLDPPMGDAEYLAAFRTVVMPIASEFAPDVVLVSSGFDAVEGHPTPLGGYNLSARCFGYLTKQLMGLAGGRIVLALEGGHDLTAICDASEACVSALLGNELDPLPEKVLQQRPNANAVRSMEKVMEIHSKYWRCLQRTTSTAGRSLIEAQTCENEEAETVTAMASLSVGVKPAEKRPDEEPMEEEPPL
T5 sequence (Q9UKV0 631-978 limits assumed, species assumed): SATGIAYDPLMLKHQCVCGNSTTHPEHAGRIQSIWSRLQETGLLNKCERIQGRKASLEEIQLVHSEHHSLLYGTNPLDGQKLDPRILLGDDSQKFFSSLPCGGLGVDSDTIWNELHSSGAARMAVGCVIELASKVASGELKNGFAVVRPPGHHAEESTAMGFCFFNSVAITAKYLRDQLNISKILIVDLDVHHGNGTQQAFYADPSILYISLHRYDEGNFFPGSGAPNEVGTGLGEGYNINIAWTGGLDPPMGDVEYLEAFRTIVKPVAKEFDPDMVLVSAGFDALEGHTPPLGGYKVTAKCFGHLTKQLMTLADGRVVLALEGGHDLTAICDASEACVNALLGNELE
T8 sequence (P56524 655-1084 H675A limits assumed): as the sequence (P56524 655-1084 limits assumed) above, with H21A counted along it
T9 sequence (P56524 655-1084 C751A limits assumed): as the sequence (P56524 655-1084 limits assumed) above, with C97A counted along it
T3 sequence (Q9UQL6 684-1028 limits assumed, species assumed): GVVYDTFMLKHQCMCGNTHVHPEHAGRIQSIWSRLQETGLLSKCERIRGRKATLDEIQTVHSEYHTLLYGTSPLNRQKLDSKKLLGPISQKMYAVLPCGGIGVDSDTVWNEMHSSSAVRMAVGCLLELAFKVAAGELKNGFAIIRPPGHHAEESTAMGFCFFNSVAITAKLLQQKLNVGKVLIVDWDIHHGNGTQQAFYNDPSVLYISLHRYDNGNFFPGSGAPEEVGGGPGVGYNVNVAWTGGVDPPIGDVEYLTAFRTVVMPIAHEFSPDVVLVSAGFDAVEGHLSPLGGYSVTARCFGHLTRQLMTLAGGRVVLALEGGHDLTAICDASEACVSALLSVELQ
T7 sequence (P56524 655-1084 C667A limits assumed): as the sequence (P56524 655-1084 limits assumed) above, with C13A counted along it

O=C(CCCCCCC(=O)Nc1ccccc1)NO [SAHA, suberoylanilide hydroxamic acid, reference compound]
maximum polarization of GSI peptide binding in the presence of inhibitor ([1]; wild type HDAC4, 2-fold molar excess of inhibitor): lower maximum polarization

CCCC(=O)[O-].[Na+] [Sodium Butyrate, sodium butyrate, reference compound]
Kd ([1]; Fig. 4A, wild type HDAC4 catalytic domain preincubated 30 min with 2-fold molar excess of the named inhibitor, Kd is that of the labeled GSI peptide, read-out: WT Kd of the GSI peptide in the presence of the HDAC inhibitor): 4.61 ± 0.26 µM | Kd ([2]; Fig. 4A, H976Y GOF HDAC4 catalytic domain preincubated 30 min with 2-fold molar excess of the named inhibitor, Kd is that of the labeled GSI peptide, read-out: GOF Kd of the GSI peptide in the presence of the HDAC inhibitor): 2.53 ± 0.24 µM

CCCC(CCC)C(=O)O [Valproic Acid, valproic acid, reference compound]
Kd ([1]; read-out: WT Kd of the GSI peptide in the presence of the HDAC inhibitor): 3.38 ± 0.24 µM | Kd ([2]; read-out: GOF Kd of the GSI peptide in the presence of the HDAC inhibitor): 2.62 ± 0.18 µM

CC[C@H](C)[C@H](NC(=O)[C@H](CO)NC(=O)CNC(=O)[C@H](CCC(=O)O)NC(=O)[C@H](CCCCN)NC(=O)[C@H](CC(C)C)NC(=O)[C@@H]1CCCN1C(=O)[C@H](CCCNC(=N)N)NC(=O)[C@@H]1CCCN1C(=O)[C@@H](N)CS)C(=O)N[C@H](C(=O)N[C@@H](CCC(N)=O)C(=O)NCC(=O)N[C@H](C(=O)N1CCC[C@H]1C(=O)N[C@@H](CC(C)C)C(=O)N[C@@H](CCCCN)C(=O)N[C@@H](Cc1ccc(O)cc1)C(=O)N[C@@H](CC(=O)O)C(=O)N[C@H](C(=O)NCC(=O)O)[C@@H](C)O)[C@@H](C)O)[C@@H](C)O [WT]
Kd ([1]; Fig. 4A, wild type HDAC4 catalytic domain, DMSO, read-out: WT Kd): 3.22 ± 0.2 µM | Kd ([1]; Fig. 4A, wild type HDAC4 catalytic domain, No Inhibitor, read-out: WT Kd): 4.73 ± 0.31 µM | Kd (HDAC5 catalytic domain): 4.24 ± 0.59 µM | Kd (HDAC7 catalytic domain): 4.44 ± 0.44 µM | Kd (HDAC9 catalytic domain): 8.34 ± 1.07 µM | Kd (full-length HDAC8): no interaction | Kd (full-length HDAC8; read-out: Kd): > 1000 µM | Kd (HDAC4cd C667A): > 1000 µM | Kd (HDAC4cd H675A): > 1000 µM | Kd (HDAC4cd C751A): > 1000 µM | Kd ([2]; Fig. 4A, H976Y GOF HDAC4 catalytic domain, DMSO, read-out: GOF Kd): 2.94 ± 0.15 µM | Kd ([2]; Fig. 4A, H976Y GOF HDAC4 catalytic domain, No Inhibitor, read-out: GOF Kd): 1.76 ± 0.18 µM

CPRPLKEGSIAQGTPLKYDTG [T4A]
Kd [1, 3]: 14.4 ± 4.26 µM

CPRPLKEGSITAGTPLKYDTG [Q5A]
Kd [1, 3]: 5.47 ± 0.57 µM

CPRPLKEGSITEGTPLKYDTG [Q5E]
Kd [1, 3]: 17.7 ± 1.4 µM

CPRPLKEGSITQGTALKYDTG [P8A]
Kd [1, 3]: 47 ± 12.3 µM

CPRPLKEGSIVQGTPLKYDTG [T4V]
Kd [1, 3]: 16.9 ± 8.73 µM
